What all share (type): cell-based, human
The subject of data set [1] is tubulin in MDA-MB-231 cells. Briefly: Fixed cell immunofluorescence of tubulin. To be noted: 24 hours of CT20p treatment. The protocol: Fixed cell immunofluorescence: Cells were seeded on glass coverslips (Fisher) in a 6-well plate at a density of 150,000 cells/well. Cells at 60% confluency were treated with CT20p or left untreated for 24 hours. After CT20p treatment, cells were stained with Mitotracker Red CMXRos (Life Technologies) at a concentration of 200 nM for 30 minutes, before being fixed in ice cold methanol for 10 minutes at −20° C. Cells were then permeabilized in 0.1% Triton X-100 for 10 minutes at 37° C. Samples were blocked in 5% normal goat serum (Santa Cruz) for 30 minutes at 37° C., then incubated with primary antibody α-tubulin (DM1A) (Santa Cruz) for 3 hours at 37° C. Secondary antibody was goat α-mouse IgG-FITC (Santa Cruz) and was applied for 1 hour at room temperature. Coverslips were mounted in UltraCruz mounting media (Santa Cruz), which contains DAPI for nuclear staining. Images were obtained with a Zeiss LSM 710 microscope, using a Zeiss 63× Pan-Apocromat oil immersion lens and Zeiss Zen software. To determine average tubulin levels per cell, the amount of FITC fluorescence intensity per region of interest was divided by the number of cells in the field. At least four images containing between 5 and 12 cells were quantified for each condition. Image analysis was done using Volocity software (Perkin Elmer).
CT20p's effect on the other main client of CCT, tubulin, was also examined. […]

The subject of data set [2] is cells isolated from paired normal tissue. The data set can be described thus: Lethality in cells isolated from paired normal tissue. To be noted: CT20 peptide in HBPE-NPs. An excerpt:
40× magnification. CCTβ was detected in invasive breast cancer.
The lethality of CT20 was also examined in cells isolated from primary breast tumors and paired normal tissue. […] To this end, the levels of CCTβ were examined in a pilot tissue array of breast cancer tissue cores by immunohistochemistry (IHC) and detected CCTβ in invasive breast cancer (FIG. 14B).

The test system of data set [3] is MDA-MB-231 cells. Briefly: Timeline of biological effects of CT20 in HBPE-NPs in breast cancer cells. Particulars: CT20 (˜3.4 nM) in HBPE-NPs. The protocol: CT20 peptide impaired mitochondrial movement (mitotracker green) (A) leading to clustering (JC-1 probe) (B) and reduced F-actin (green) polymerization (nucleus, DAPI, blue (C). Referring to FIG. 3D, the viability of cells was determined by measuring membrane permeability (Sytox) and membrane asymmetry (violet ratiometric dye). Gates are: N, necrotic; V, viable; A, apoptotic. Percentages are V (black) and N+A (red). Referring to FIG. 3E, by 6 hours, cells detach from substrate (fibronectin). Referring to FIG. 3F, membrane levels of β1 integrin decrease. Referring to FIG. 3G-3I, post-cell detachment events include caspase activation, autophagy, and increased ROS production. Referring to FIG. 3J, apoptosis/anoikis was detected between 24-48 hours as described for 3D.
This triggered hyperpolarization of the mitochondrial membrane and fusion-like aggregation (FIG. 3B) that impaired mitochondrial redistribution, ATP production, and F-actin polymerization (FIG. 3C). Cells remained viable during these “initiating events” (FIG. 3D). However, at 6 hours post-CT20 treatment, cells began detaching from the substrate (fibronectin) (FIG. 3E). This was preceded by decreased expression of integrins (β1 integrin is shown; FIG. 3F). By 24 hours post-CT20 treatment, “effector events” caused by peptide-induced detachment were detected, including the activation of caspases (FIG. 3G), the induction of autophagy (FIG. 3H), and increased ROS production (FIG. 3I). Cell death (anoikis), indicated by membrane asymmetry, was detected in cancer cells by 48 hours (FIG. 3J).

Data set [4] relates to BT-549 cells. Briefly: Cell viability by flow cytometry (Sytox AADvanced / F2N12S), time course. Particulars: 75 ug/mL. The protocol: (§1) Measurement of cell viability: Cells at 60% confluency were treated with CT20p at a dose of 75 ug/mL for varying lengths of time. Following treatment, cells were collected and stained with Sytox AADvanced and F2N12S Violet Ratiometric Apoptosis kit (Invitrogen). Data was acquired by flow cytometry on a FACS Canto (BD Biosciences), and analyzed with FCSExpress software (DeNovo).
(§2) The cytotoxicity of CT20p to the cell lines was also assessed. To do this, cells were treated with the effective dose of CT20p in a time course-experiment, and membrane symmetry and permeability were examined by flow cytometry (FIG. 5B). […] BT-549 cells, on the other hand, were resistant to the effects of the peptide.
(In general: In flow cytometry, cells or beads pass a laser one at a time.)

The test system of data set [5] is MDA-MB-231 cells. The data set is described as above. To be noted: 75 ug/mL. The protocol:
as §1, §2

Each structure is given as a SMILES string. Residues, ends and D or L forms follow the SMILES beside them. A value given as a limit tells only on which side of the number the result lay.

Consider `CC[C@H](C)[C@H](NC(=O)[C@@H](NC(=O)[C@H](CC(C)C)NC(=O)[C@H](CO)NC(=O)[C@H](C)NC(=O)[C@@H](NC(=O)[C@H](CC(C)C)NC(=O)[C@@H](NC(=O)CNC(=O)[C@H](C)NC(=O)[C@@H](NC(=O)[C@H](Cc1ccccc1)NC(=O)[C@@H](NC(=O)[C@@H](NC(=O)[C@@H](NC(C)=O)C(C)C)[C@@H](C)O)[C@@H](C)CC)C(C)C)C(C)C)[C@@H](C)O)[C@@H](C)O)C(=O)N[C@@H](Cc1c[nH]c2ccccc12)C(=O)N[C@@H](CCCCN)C(=O)N[C@@H](CCCCN)C(=O)N[C@@H](CCSC)C(=O)NCC(N)=O` [CT20] (Ac-VTIFVAGVLTASLTIWKKMG-NH2), for which the “Amount of tubulin per cell” value in data set [1] is listed as “significant decrease”. The Lethality entry in data set [2] is given as “not the normal cells”. Besides, in data set [3], the “Movement of mitochondria compared to controls” value is on record as “decreased four-fold” and the “Time by which cell death (anoikis, membrane asymmetry) was detected” value is not above 48 h. In data set [3] (post-CT20 treatment), the “Time at which cells began detaching from the substrate (fibronectin)” value was 6 h and the “Time by which effector events (caspase activation, autophagy, increased ROS) were detected” value is not above 24 h. In addition, the “Sensitivity to CT20p cytotoxicity” value in data set [4] is listed as “resistant”. Besides, the “Sensitivity to CT20p cytotoxicity” value in data set [5] is given as “highly susceptible”.
